According to ChEMBL document CHEMBL1156383, “Isolation and biological evaluation of filiformin, plakortide F, and plakortone G from the Caribbean sponge Plakortis sp” (J Nat Prod, 2001):
≈ marks a conversion by molar mass, not a printed value. Calls of active or inactive are those of the source. The rule behind the calls is not given here.

Columns and labels:
THP-1 = experiment: Immunostimulatory activity in human THP1 cells assessed as LPS-induced NF-kappaB activation at =< 50 ug/mL by luciferase reporter gene assay; type: functional, cell-based
Plasmodium berghei [1] = experiment: Antimalarial activity as parasitaemia against Plasmodium berghei ANKA infected Swiss albino mice (Mus musculus) at 100 uM/kg intraperitoneal dose after 3 days; type: functional
Plasmodium falciparum [2] = experiment: Antimalarial activity against Plasmodium falciparum D6; type: functional, organism-based
Toxoplasma gondii = experiment: Antiparasitic activity against Toxoplasma gondii RH infected in mouse L929 cells assessed as [3H]uracil incorporation at 1 uM after 72 hrs by scintillation counting; type: functional
Hepatitis B virus = experiment: Antiviral activity against Hepatitis B virus cell culture assay; type: functional, organism-based
[3] = system: Mycobacterium tuberculosis; experiment: Antitubercular activity against Mycobacterium tuberculosis at 6.25 ug/mL; type: functional
[4] = system: Human immunodeficiency virus; experiment: Antiviral activity against Human immunodeficiency virus; type: functional, organism-based; details: Human immunodeficiency virus 1
Plasmodium berghei [5] = experiment: Antimalarial activity against Plasmodium berghei ANKA infected Swiss albino mice (Mus musculus) intraperitoneal dose over 3 days; type: functional, organism-based
P388 = experiment: Cytotoxicity against mouse P388 cells by alamar blue assay; type: functional, cell-based
HT-29 = experiment: Cytotoxicity against human HT-29 cells by alamar blue assay; type: functional, cell-based
Cryptococcus neoformans = experiment: Antifungal activity against Cryptococcus neoformans; type: functional, organism-based
SK-MEL-28 = experiment: Cytotoxicity against human SK-MEL-28 cells by alamar blue assay; type: functional, cell-based
Plasmodium falciparum [6] = experiment: Antimalarial activity against chloroquine-resistant Plasmodium falciparum W2; type: functional, organism-based
Staphylococcus aureus [7] = experiment: Antibacterial activity against methicillin-resistant Staphylococcus aureus; type: functional, organism-based
Candida albicans = experiment: Antifungal activity against Candida albicans; type: functional, organism-based
Aspergillus fumigatus = experiment: Antifungal activity against Aspergillus fumigatus; type: functional, organism-based
[8] = system: Mycobacterium intracellulare; experiment: Antibacterial activity against Mycobacterium intracellular; type: functional, organism-based
Pseudomonas aeruginosa = experiment: Antibacterial activity against Pseudomonas aeruginosa; type: functional, organism-based
A549 = experiment: Cytotoxicity against human A549 cells by alamar blue assay; type: functional, cell-based
Plasmodium berghei [9] = experiment: Antimalarial activity as increased survival against Plasmodium berghei ANKA infected Swiss albino mice (Mus musculus) at 100 uM/kg intraperitoneal dose; type: functional, organism-based
Staphylococcus aureus [10] = experiment: Antibacterial activity against Staphylococcus aureus; type: functional, organism-based
[11] = system: Mycobacterium tuberculosis; experiment: Antitubercular activity against Mycobacterium tuberculosis; type: functional

Cc1cc2c(cc1Br)[C@]1(C)CC[C@](C)(CO2)[C@@H]1C
Activity (THP-1): inactive

C[C@@H]1CC[C@H]2[C@@H](C)C(=O)O[C@@H]3O[C@@]4(C)CC[C@@H]1[C@]32OO4 [ARTEMISININ]
Activity (Plasmodium berghei [1]): 35.9%
IC50 (Plasmodium falciparum [2]): 0.012 µg/mL (≈ 0.0425 µM)

O=C1C(O)=C([C@H]2CC[C@H](c3ccc(Cl)cc3)CC2)C(=O)c2ccccc21 [ATOVAQUONE]
inhibition at 1 µM (Toxoplasma gondii): 100%

CCN(CC)CCCC(C)Nc1ccnc2cc(Cl)ccc12 (stereo not given) [CHLOROQUINE]
Activity (Plasmodium berghei [1]): 0.1%

Nc1ccn([C@@H]2CS[C@H](CO)O2)c(=O)n1 [LAMIVUDINE]
EC50 (Hepatitis B virus): 0.062 µg/mL (≈ 0.27 µM)

CC/C=C/C(CC)CCC[C@@]1(CC)C[C@H](CC)[C@H](CC(=O)OC)OO1 (stereo not given in full) [PLAKORTIDE F]
inhibition at 6.25 µg/mL [3]: 29%
EC50 [4]: 13 µM
IC50 (Plasmodium berghei [5]): Not Active
Activity (Plasmodium berghei [1]): inactive
IC50 (Plasmodium falciparum [2]): 0.48 µg/mL (≈ 1.35 µM)
IC50 (P388): 1.25 µg/mL (≈ 3.53 µM)
IC50 (HT-29): 1.25 µg/mL (≈ 3.53 µM)
Activity (Cryptococcus neoformans): inactive
IC50 (SK-MEL-28): 2.5 µg/mL (≈ 7.05 µM)
IC50 (Plasmodium falciparum [6]): 0.39 µg/mL (≈ 1.1 µM)
Activity (Staphylococcus aureus [7]): inactive
Activity (Candida albicans): inactive
inhibition at 1 µM (Toxoplasma gondii): 67%
Activity (Aspergillus fumigatus): inactive
Activity [8]: inactive
EC50 (Hepatitis B virus): > 100 µg/mL
Activity (Pseudomonas aeruginosa): inactive
IC50 (A549): 2.5 µg/mL (≈ 7.05 µM)
Activity (Plasmodium berghei [9]): inactive
Activity (Staphylococcus aureus [10]): inactive

CC/C=C/[C@H](CC)CCC[C@@]1(CC)C=C(CC)C(=O)O1 [PLAKORTONE G]
inhibition at 6.25 µg/mL [3]: 4%
IC50 (Plasmodium falciparum [2]): 4.2 µg/mL (≈ 15.1 µM)
IC50 (HT-29): > 1 µg/mL
Activity (Cryptococcus neoformans): inactive
IC50 (SK-MEL-28): > 10 µg/mL
IC50 (Plasmodium falciparum [6]): > 4.76 µg/mL
Activity (Staphylococcus aureus [7]): inactive
Activity (Candida albicans): inactive
Activity (Aspergillus fumigatus): inactive
Activity [8]: inactive
EC50 (Hepatitis B virus): > 100 µg/mL
Activity (Pseudomonas aeruginosa): inactive
IC50 (A549): > 1 µg/mL
Activity (Staphylococcus aureus [10]): inactive

CO[C@H]1/C=C/O[C@@]2(C)Oc3c(C)c(O)c4c(O)c(c(/C=N/N5CCN(C)CC5)c(O)c4c3C2=O)NC(=O)/C(C)=C\C=C\[C@H](C)[C@H](O)[C@@H](C)[C@@H](O)[C@@H](C)[C@H](OC(C)=O)[C@@H]1C [RIFAMPIN]
MIC [11]: 0.25 µg/mL (≈ 0.304 µM)

CC/C(=C(\c1ccccc1)c1ccc(OCCN(C)C)cc1)c1ccccc1 [TAMOXIFEN]
IC50 (HT-29): 1.86 µg/mL (≈ 5.01 µM)
IC50 (SK-MEL-28): 1.86 µg/mL (≈ 5.01 µM)
IC50 (A549): 1.86 µg/mL (≈ 5.01 µM)

Cc1cn([C@H]2C[C@H](N=[N+]=[N-])[C@@H](CO)O2)c(=O)[nH]c1=O [ZIDOVUDINE]
EC50 [4]: 0.004 µM
